In assay [1] the test system is Proteasome. Description: Inhibition of chymotrypsin-like activity of 20S proteasome. Format: subcellular.
Assay [2] deals with T1, Calpain 1 (Homo sapiens, UniProt P04632+P07384).
T1 sequence (P04632 whole entry): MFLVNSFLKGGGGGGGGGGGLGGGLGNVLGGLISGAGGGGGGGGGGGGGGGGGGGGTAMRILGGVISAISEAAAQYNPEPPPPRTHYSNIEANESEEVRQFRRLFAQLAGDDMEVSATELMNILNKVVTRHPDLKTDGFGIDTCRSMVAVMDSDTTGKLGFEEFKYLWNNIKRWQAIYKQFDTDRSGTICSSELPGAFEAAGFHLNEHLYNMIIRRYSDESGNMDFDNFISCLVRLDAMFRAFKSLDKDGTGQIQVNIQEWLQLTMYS
T1 sequence (P07384 whole entry): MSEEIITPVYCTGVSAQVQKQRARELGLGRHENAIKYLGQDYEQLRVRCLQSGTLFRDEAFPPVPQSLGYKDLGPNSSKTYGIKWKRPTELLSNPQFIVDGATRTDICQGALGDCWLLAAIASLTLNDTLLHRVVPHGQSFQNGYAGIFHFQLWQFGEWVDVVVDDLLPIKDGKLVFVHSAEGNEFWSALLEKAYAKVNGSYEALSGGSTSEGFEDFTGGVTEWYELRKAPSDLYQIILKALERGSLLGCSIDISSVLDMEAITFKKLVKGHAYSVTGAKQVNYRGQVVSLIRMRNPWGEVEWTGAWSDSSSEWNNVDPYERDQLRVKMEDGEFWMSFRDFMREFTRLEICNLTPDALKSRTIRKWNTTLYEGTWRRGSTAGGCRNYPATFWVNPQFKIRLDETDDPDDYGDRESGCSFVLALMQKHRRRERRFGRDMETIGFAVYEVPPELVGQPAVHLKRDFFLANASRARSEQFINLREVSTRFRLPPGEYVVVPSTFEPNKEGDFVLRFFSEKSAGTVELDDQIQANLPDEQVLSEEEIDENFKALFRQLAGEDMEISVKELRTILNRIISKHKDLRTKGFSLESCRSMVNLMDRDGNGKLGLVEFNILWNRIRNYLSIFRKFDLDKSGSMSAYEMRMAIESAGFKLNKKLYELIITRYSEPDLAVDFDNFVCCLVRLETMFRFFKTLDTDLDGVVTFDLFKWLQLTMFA
Description: Inhibitory activity against calpain I; no inhibition was observed. Format: protein-complex assay.

Assay [3] concerns the target Calpain 1 (Homo sapiens, UniProt P07384). Briefly: Inhibitory activity against Calpain I. It is filed as protein-complex assay.
The next assay concerns RAW. Description: Antiproliferative activity against murine macrophage (RAW) cell line. Format: functional, cell-based. To be noted: Mus musculus.
For assay [4], the system named is Proteasome. Briefly: Inhibition of chymotrypsin-like activity of 20S proteasome; value ranges from 10-20 uM. Format: subcellular.

Structures are written as SMILES. Where a SMILES comes first, the peptide text is derived from it. [ ]: non-standard residue; d: D form. Nle = CCCC[C@H](N)C(=O)O

As for `COc1ccc2c(c1)C(CC(=O)N[C@@H](CC(C)C)C(=O)N[C@H](CC(C)C)C(=O)NCc1ccc3c(c1)OCO3)CC2=O` (some centres undefined), the 50% inhibitory concentration (IC50) is 0.34 µM in the assay on Proteasome [1] and “No inhibition” at Calpain 1 [2].
The like results for `COc1ccc2c(c1)C(CC(=O)N[C@H](CC(C)C)C(=O)N[C@@H](CC(C)C)C(N)=O)CC2=O` (some centres undefined) were, in that order, more than 20 µM and “No inhibition”.
With `COc1ccc2c(c1)C(CC(=O)N[C@@H](CC(C)C)C(=O)N[C@H](CC(C)C)C(=O)NCc1ccc([N+](=O)[O-])cc1)CC2=O` (some centres undefined), the values for the IC50 in the assay on Proteasome [1] and at Calpain 1 [2] were more than 17 µM and “No inhibition”, respectively.
On the same counts, the results for `COc1ccc2c(c1)C(CC(=O)N[C@H](CC(C)C)C(=O)N[C@H](CC(C)C)C(N)=O)CC2=O` (some centres undefined) are 2.2 µM and “No inhibition”.
On the same counts, the results for `COc1ccc2c(c1)C(CC(=O)N[C@@H](CC(C)C)C(=O)N[C@H](CC(C)C)C(N)=O)CC2=O` (some centres undefined) are more than 20 µM and “No inhibition”.
The like results for `COc1ccc2c(c1)C(CC(=O)N[C@H](CC(C)C)C(=O)N[C@H](CC(C)C)C(=O)NCC(N)=O)CC2=O` (some centres undefined) were, in that order, more than 20 µM and “No inhibition”.
In the case of `CCC[C@H](NC(=O)CC1CC(=O)c2ccc(OC)cc21)C(=O)N[C@H](CC(C)C)C(=O)NCC(N)=O` (some centres undefined), the results for the IC50 in the assay on Proteasome [1] and at Calpain 1 [2] were more than 20 µM and “No inhibition”, respectively.
The like results for `COc1ccc2c(c1)C(CC(=O)N[C@@H](CC(C)C)C(=O)N[C@H](CC(C)C)C(=O)N1CCCCC1)CC2=O` (some centres undefined) were, in that order, more than 20 µM and “No inhibition”.
The like results for `COc1ccc2c(c1)C(CC(=O)N[C@@H](CC(C)C)C(=O)N[C@H](CC(C)C)C(=O)NCc1occ3ccccc13)CC2=O` (some centres undefined) were, in that order, 8.7 µM and “No inhibition”.
On the same counts, the results for `COc1ccc2c(c1)C(CC(=O)N[C@@H](CC(C)C)C(=O)N[C@@H](CC(C)C)C(=O)NCC(N)=O)CC2=O` (some centres undefined) are more than 20 µM and “No inhibition”.
For the molecule `CCCC[C@@H](C=O)NC(=O)[C@H](CC(C)C)NC(=O)[C@H](CC(C)C)NC(C)=O` (Ac-Leu-Leu-[Nle]-aldehyde), the results for the 50% inhibitory concentration (IC50) with Proteasome [1] and on Calpain 1 [3] were 0.15 µM and 7 µM, respectively.
As for `COc1ccc2c(c1)C(CC(=O)N[C@@H](CC(C)C)C(=O)N[C@H](CC(C)C)C(=O)N1CCOCC1)CC2=O` (some centres undefined), the half-inhibitory concentration (IC50) with Proteasome [1] was more than 20 µM; at Calpain 1 [2], “No inhibition”.
The like results for `COc1ccc2c(c1)C(CC(=O)N[C@@H](CC(C)C)C(=O)N[C@H](CC(C)C)C(=O)NC(C)C)CC2=O` (some centres undefined) were, in that order, more than 20 µM and “No inhibition”.
The like results for `COc1ccc2c(c1)C(CC(=O)N[C@H](CC(C)C)C(=O)N[C@@H](C(N)=O)C(C)C)CC2=O` (some centres undefined) were, in that order, more than 20 µM and “No inhibition”.
The like results for `COc1ccc2c(c1)C(CC(=O)N[C@@H](CC(C)C)C(=O)N[C@H](CC(C)C)C(=O)NCC1CCCCC1)CC2=O` (some centres undefined) were, in that order, more than 18 µM and “No inhibition”.
For `COc1ccc2c(c1)C(CC(=O)N[C@@H](CC(C)C)C(=O)N[C@H](CC(C)C)C(=O)NC1C3CC4CC(C3)CC1C4)CC2=O` (some centres undefined), the IC50 was more than 18 µM in the assay on Proteasome [1] and “No inhibition” against Calpain 1 [2].
On to `COc1ccc2c(c1)C(CC(=O)N[C@@H](CC(C)C)C(=O)N[C@H](CC(C)C)C(=O)NCCO)CC2=O` (some centres undefined), for which the IC50 is more than 20 µM in the assay with Proteasome [1] and “No inhibition” against Calpain 1 [2].
In the case of `COc1ccc2c(c1)C(CC(=O)N[C@@H](CC(C)C)C(=O)N[C@H](CC(C)C)C(=O)NCc1ccccc1)CC2=O` (some centres undefined), the 50% inhibitory concentration (IC50) with Proteasome [1] was 0.93 µM; on Calpain 1 [2] it was “No inhibition”; in the assay with RAW, 7 µM.
Turning to `COc1ccc2c(c1)C(CC(=O)N[C@@H](CC(C)C)C(=O)N[C@H](CC(C)C)C(=O)N(C)Cc1ccccc1)CC2=O` (some centres undefined), the concentration for half-maximal inhibition (IC50) in the assay on Proteasome [1] was more than 18 µM; on Calpain 1 [2], “No inhibition”.
Regarding `COc1ccc2c(c1)C(CC(=O)N[C@H](Cc1ccccc1)C(=O)N[C@H](CC(C)C)C(N)=O)CC2=O` (some centres undefined), the IC50 is more than 20 µM in the assay with Proteasome [1] and “No inhibition” against Calpain 1 [2].
Take `COc1ccc2c(c1)C(CC(=O)N[C@@H](CC(C)C)C(=O)N[C@H](CC(C)C)C(=O)NCC(N)=O)CC2=O` (some centres undefined): the figures for the IC50 in the assay on Proteasome [1] and on Calpain 1 [2] were 0.2 µM and “No inhibition”, respectively.
In the case of `COc1ccc2c(c1)C(CC(=O)N[C@@H](CC(C)C)C(=O)N[C@H](CC(C)C)C(=O)NC1CCc3ccccc31)CC2=O` (some centres undefined), the figures for the IC50 in the assay on Proteasome [1] and against Calpain 1 [2] were 0.89 µM and “No inhibition”, respectively.
The like results for `COc1ccc2c(c1)C(CC(=O)N[C@@H](CC(C)C)C(=O)N[C@H](CC(C)C)C(=O)NCc1c(F)c(F)c(F)c(F)c1F)CC2=O` (some centres undefined) were, in that order, more than 16 µM and “No inhibition”.
`COc1ccc2c(c1)C(CC(=O)N[C@@H](C(=O)N[C@H](CC(C)C)C(N)=O)C(C)C)CC2=O` (some centres undefined): the concentration for half-maximal inhibition (IC50) in the assay on Proteasome [1] was more than 20 µM; against Calpain 1 [2], “No inhibition”.
The like results for `COc1ccc(CNC(=O)[C@@H](CC(C)C)NC(=O)[C@H](CC(C)C)NC(=O)CC2CC(=O)c3ccc(OC)cc32)cc1` (some centres undefined) were, in that order, 0.71 µM and “No inhibition”.
The like results for `COc1ccc2c(c1)C(CC(=O)N[C@@H](CC(C)C)C(=O)N[C@H](CC(C)C)C(=O)NC(c1ccccc1)c1ccccc1)CC2=O` (some centres undefined) were, in that order, more than 16 µM and “No inhibition”.
For `COc1ccc2c(c1)C(CC(=O)N[C@@H](CC(C)C)C(=O)N[C@H](CC(C)C)C(=O)NCc1ccco1)CC2=O` (some centres undefined), the IC50 in the assay with Proteasome [1] is 1.9 µM; at Calpain 1 [2], “No inhibition”.
As for `COc1ccc2c(c1)C(CC(=O)N[C@@H](CC(C)C)C(=O)N[C@H](CC(C)C)C(=O)NCc1c(F)cccc1F)CC2=O` (some centres undefined), the results for the IC50 in the assay on Proteasome [1], against Calpain 1 [2] and with RAW were 0.14 µM, “No inhibition” and 8 µM, respectively.
As for `COc1ccc2c(c1)C(CC(=O)N[C@@H](CC(C)C)C(=O)N[C@H](CC(C)C)C(=O)NCc1ccc(-c3ccccc3)cc1)CC2=O` (some centres undefined), the results for the IC50 with Proteasome [1] and on Calpain 1 [2] were 0.49 µM and “No inhibition”, respectively.
The like results for `COc1ccc2c(c1)C(CC(=O)N[C@@H](CC(C)C)C(=O)N[C@H](CC(C)C)C(=O)NCc1ccccc1-c1ccccc1)CC2=O` (some centres undefined) were, in that order, more than 16 µM and “No inhibition”.
As to `COc1ccc2c(c1)C(CC(=O)N[C@@H](CC(C)C)C(=O)N[C@H](CC(C)C)C(=O)Nc1ccccc1)CC2=O` (some centres undefined), the results for the concentration for half-maximal inhibition (IC50) with Proteasome [1] and at Calpain 1 [2] were more than 19 µM and “No inhibition”, respectively.
The like results for `COc1ccc2c(c1)C(CC(=O)N[C@@H](CC(C)C)C(=O)N[C@@H](CC(C)C)C(N)=O)CC2=O` (some centres undefined) were, in that order, more than 20 µM and “No inhibition”.
On to `COc1ccc2c(c1)C(CC(=O)N[C@@H](CC(C)C)C(=O)N[C@H](CC(C)C)C(=O)NCCc1ccccc1)CC2=O` (some centres undefined), for which the concentration for half-maximal inhibition (IC50) in the assay with Proteasome [1] was more than 18 µM; against Calpain 1 [2], “No inhibition”.
With `COc1ccc2c(c1)C(CC(=O)N[C@H](CC(C)C)C(=O)N[C@@H](CC(C)C)C(=O)NCC(N)=O)CC2=O` (some centres undefined), the values for the concentration for half-maximal inhibition (IC50) in the assay with Proteasome [4] and on Calpain 1 [2] were 10 µM and “No inhibition”, respectively.
As for `COc1ccc2c(c1)C(CC(=O)N[C@@H](CC(C)C)C(=O)N[C@H](CC(C)C)C(=O)NCc1ccc(OCc3ccccc3)cc1)CC2=O` (some centres undefined), the IC50 in the assay with Proteasome [1] was 16 µM; against Calpain 1 [2], “No inhibition”.
The like results for `COc1ccc2c(c1)C(CC(=O)N[C@@H](CC(C)C)C(=O)N[C@H](CC(C)C)C(=O)N1CCCC1)CC2=O` (some centres undefined) were, in that order, more than 20 µM and “No inhibition”.

The record behind these values is ChEMBL document CHEMBL1131403, “Selective inhibition of the chymotrypsin-like activity of the 20S proteasome by 5-methoxy-1-indanone dipeptide benzamides” (Bioorg Med Chem Lett, 1998).
